Measured values taken from US20070105782A1, “Protectant Combinations for Reducing Toxicities” (BOARD OF TRUSTEES OF SOUTHERN ILLINOIS UNIVERSITY, priority 2005, published 2007).

What was measured:
[1] = cited from earlier work
male Wistar rats = conditions: pretreated 30 minutes prior to CDDP infusion
Method: Complete data sets are obtained for five groups of five male Wistar rats (280-421 g). All animals are anesthetized with 1 ml/mg IM of Rompun cocktail (a solution containing 86.21 mg/ml ketamine and 2.76 mg/ml xylazine) prior to all injections and testing. Anesthesia is supplemented as needed with half doses throughout testing. The five groups include: a treated control group which received a dose of CDDP dissolved in normal sterile saline (1 mg of CDDP/ml normal saline; solution pH 6.3) administered by i.p. infusion with a Harvard Apparatus Infusion Pump, over a 30 minute period, an untreated control group that received an equivalent volume of normal saline (pH 6.5) instead of CDDP, and three experimental groups that receive various doses of protectant combination (comprising two or more of methionine protectant agents, carnitine, N-acetylcysteine, magnesium ions, lipoic acid, ebselen, glutathione, and glutathione ester) within the ranges described below dissolved in 3-5 ml of normal saline (solution pH 6.6) delivered by slow (over 1-2 minutes) i.p. injection 30 minutes prior to the same CDDP infusion as the treated control group. Both CDDP (purchased from Sigma Chemical Co., St. Louis) and the protectant combinations are freshly prepared before each experiment.

## CSCC[C@@H](N)C(=O)O [D-methionine]
[1]; humans, except in L-methionine deprivation
  excreted without conversion to the L-isomer: 60-70%
[1]; in the human
  plasma levels compared with L-methionine: higher plasma levels than L-methionine
Male Wistar rats
  survival until the end of the study period: all of the animals in each of these groups are expected to survive
